Results from patent publication US9724352B2, “Pyrrolo[2,1-F[1,2,4]triazine compounds, preparation methods and applications thereof” (Shanghai Institute of Materia Medica, Chinese Academy of …, priority 2012, dated 2017).
Each block holds one compound with its values, some of them ahead of it.

Key:
PI3Kα = PI3Kα (Homo sapiens (Human), UniProt P42336); experiment: Inhibition on PI3K kinase activity (Kinase-Glo Plus luminescent assay); format: biochemical; conditions: 2 μM ATP, 1 hour at room temperature
PI3Kα, sequence (P42336 whole entry): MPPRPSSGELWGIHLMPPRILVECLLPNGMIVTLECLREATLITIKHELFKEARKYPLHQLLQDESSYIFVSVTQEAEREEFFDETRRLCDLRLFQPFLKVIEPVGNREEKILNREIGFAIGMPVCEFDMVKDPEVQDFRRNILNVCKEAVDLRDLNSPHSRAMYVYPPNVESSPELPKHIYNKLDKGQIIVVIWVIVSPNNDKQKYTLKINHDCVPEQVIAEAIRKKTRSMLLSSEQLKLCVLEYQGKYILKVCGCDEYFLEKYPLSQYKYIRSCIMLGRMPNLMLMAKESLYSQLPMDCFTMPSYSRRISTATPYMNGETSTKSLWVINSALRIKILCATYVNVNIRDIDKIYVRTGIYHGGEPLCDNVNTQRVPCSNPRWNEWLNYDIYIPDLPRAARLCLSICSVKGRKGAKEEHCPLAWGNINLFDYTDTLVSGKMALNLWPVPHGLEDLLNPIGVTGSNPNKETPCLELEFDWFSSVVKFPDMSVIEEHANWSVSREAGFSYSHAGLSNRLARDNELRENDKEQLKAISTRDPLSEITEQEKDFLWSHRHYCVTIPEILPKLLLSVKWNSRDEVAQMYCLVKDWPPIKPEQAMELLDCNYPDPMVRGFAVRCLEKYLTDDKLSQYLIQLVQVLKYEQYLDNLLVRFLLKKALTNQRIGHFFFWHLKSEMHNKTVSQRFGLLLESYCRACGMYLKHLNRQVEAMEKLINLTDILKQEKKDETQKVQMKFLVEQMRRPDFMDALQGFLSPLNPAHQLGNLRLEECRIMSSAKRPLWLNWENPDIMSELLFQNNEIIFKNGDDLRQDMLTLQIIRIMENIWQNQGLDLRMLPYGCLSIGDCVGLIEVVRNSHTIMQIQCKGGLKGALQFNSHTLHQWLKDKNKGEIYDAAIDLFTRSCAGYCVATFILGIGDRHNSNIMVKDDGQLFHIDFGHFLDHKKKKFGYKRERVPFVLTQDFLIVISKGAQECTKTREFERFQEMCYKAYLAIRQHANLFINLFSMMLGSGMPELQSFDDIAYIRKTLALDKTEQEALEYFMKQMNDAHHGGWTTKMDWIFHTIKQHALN
PI3Kα, sequence (P27986 whole entry partner): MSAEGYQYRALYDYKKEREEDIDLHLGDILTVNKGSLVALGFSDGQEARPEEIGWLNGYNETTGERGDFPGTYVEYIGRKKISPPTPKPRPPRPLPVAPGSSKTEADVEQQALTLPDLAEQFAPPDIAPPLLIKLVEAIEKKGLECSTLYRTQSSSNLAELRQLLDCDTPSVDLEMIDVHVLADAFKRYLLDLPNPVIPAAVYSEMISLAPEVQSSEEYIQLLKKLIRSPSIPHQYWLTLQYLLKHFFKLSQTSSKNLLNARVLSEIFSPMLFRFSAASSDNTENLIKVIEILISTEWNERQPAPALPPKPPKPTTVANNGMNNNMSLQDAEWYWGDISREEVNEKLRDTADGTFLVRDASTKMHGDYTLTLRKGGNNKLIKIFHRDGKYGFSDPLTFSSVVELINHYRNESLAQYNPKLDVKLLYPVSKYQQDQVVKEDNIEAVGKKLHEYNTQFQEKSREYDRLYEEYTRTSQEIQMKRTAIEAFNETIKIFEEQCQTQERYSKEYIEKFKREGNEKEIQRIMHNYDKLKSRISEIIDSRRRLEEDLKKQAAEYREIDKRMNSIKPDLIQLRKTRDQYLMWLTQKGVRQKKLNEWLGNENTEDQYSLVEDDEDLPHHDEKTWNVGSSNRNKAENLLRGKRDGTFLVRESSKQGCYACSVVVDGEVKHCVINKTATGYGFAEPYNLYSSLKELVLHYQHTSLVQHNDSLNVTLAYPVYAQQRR
Protocol: The activity of purified kinase was detected with Kinase-Glo® Plus kinase luminescent assay by measuring the amount of the remaining […] in the solution after the kinase reaction was completed. […] After reaction was performed for 1 hour at room temperature, 10 μL of Kinase Glo-Plus mixture was added and incubated for 1 hour to quench the reaction.

[1] = tested on: human rhabdomyosarcoma Rh30 cells; experiment: Proliferation of Rh30 cells (sulforhodamine B); format: cell-based; conditions: for IC50: Homo sapiens, Rh30, 72 h, read-out: IC50 against proliferation of Rh30 cells
Protocol: Rh30 cells were seeded in a 96-well plate at 3000 cells/well. After the cells adhered, tested compounds at concentration of 10, 3, 1, 0.3, or 0.1 μM were added, and incubated for 72 h. The culture media were discarded and cells were fixed with trichloroacetic acid. After washed with distilled water for five times and dried, sulfonylrhodamine B was added. After washed with 1% glacial acetic acid for five times and dried, trihydroxymethylaminomethane buffer was added. OD value was measured by using a microplate reader at a wavelength of 560 nm.

COLO680N = experiment: Proliferation of human esophagus cancer cells; format: cell-based; conditions: COLO-680N
Text: (§1) Compounds BYL719 (shown below), CYH33 (compound I-33) and I-27 were selected to test their activity on the proliferation of 11 species of human esophagus cancer cells.
(§2) The results reported in FIG. 3 were the average GI50 value and SD value of three experiments. The results were arranged according to the GI50 value of CYH33.

Detroit 562 = experiment: Proliferation of human esophagus cancer cells; format: cell-based
Text: as §1, §2

KYSE140 = experiment: Proliferation of human esophagus cancer cells; format: cell-based
Text: as §1, §2

KYSE150 = experiment: Proliferation of human esophagus cancer cells; format: cell-based
Text: as §1, §2

KYSE180 = experiment: Proliferation of human esophagus cancer cells; format: cell-based
Text: as §1, §2

KYSE2 = experiment: Proliferation of human esophagus cancer cells; format: cell-based
Text: as §1, §2

KYSE30 = experiment: Proliferation of human esophagus cancer cells; format: cell-based
Text: as §1, §2

KYSE410 = experiment: Proliferation of human esophagus cancer cells; format: cell-based
Text: as §1, §2

KYSE450 = experiment: Proliferation of human esophagus cancer cells; format: cell-based
Text: as §1, §2

KYSE510 = experiment: Proliferation of human esophagus cancer cells; format: cell-based
Text: as §1, §2

KYSE70 = experiment: Proliferation of human esophagus cancer cells; format: cell-based
Text: as §1, §2

[2] = tested on: human esophagus cancer KYSE 410 xenograft; experiment: Growth of KYSE 410 xenograft subcutaneously transplanted in nude mouse; format: in vivo; conditions: for Relative tumor proliferation rate T/C: 50 mg/kg p.o. once every day
Protocol: Well-developed tumors in nude mice were cut into 1.5 mm3 fragments and transplanted s.c. into the right flank of nude mice under sterile conditions. The diameters of subcutaneously transplanted tumours in nude mice were measured with a vernier calipe. When the tumour reached a volume 170 mm3, the mice were randomly assigned into two treatment groups: CYH33 50 mg/kg group or BYL-719 50 mg/kg group. Control groups were given the same amount of normal saline, and treatment groups received tested compounds (p.o). Compounds were administered orally once every day for 3 weeks. Evaluation index of antitumor activity was relative tumor proliferation rate T/C (%), the calculation formula of which was as follows: T/C (%)=(TRTV/CRTV)×100%, TRTV:RTV of treatment group; CRTV:RTV of negative control group.

[3] = Detroit 562, Detroit 562, 1st experiment
[4] = Detroit 562, Detroit 562, 2nd experiment
[5] = Detroit 562, Detroit 562, 3rd experiment
[6] = Detroit 562, Detroit 562, mean of three experiments
[7] = KYSE-140, KYSE140, 1st experiment
[8] = KYSE-140, KYSE140, 2nd experiment
[9] = KYSE-140, KYSE140, 3rd experiment
[10] = KYSE-140, KYSE140, mean of three experiments
[11] = KYSE-150, KYSE150, 1st experiment
[12] = KYSE-150, KYSE150, 2nd experiment
[13] = KYSE-150, KYSE150, 3rd experiment
[14] = KYSE-150, KYSE150, mean of three experiments
[15] = KYSE-180, KYSE180, 1st experiment
[16] = KYSE-180, KYSE180, 2nd experiment
[17] = KYSE-180, KYSE180, 3rd experiment
[18] = KYSE-180, KYSE180, mean of three experiments
[19] = KYSE2, mean of three experiments
[20] = KYSE-30, KYSE30, 1st experiment
[21] = KYSE-30, KYSE30, 2nd experiment
[22] = KYSE-30, KYSE30, 3rd experiment
[23] = KYSE-30, KYSE30, mean of three experiments
[24] = KYSE-410, KYSE410, 1st experiment
[25] = KYSE-410, KYSE410, 2nd experiment
[26] = KYSE-410, KYSE410, 3rd experiment
[27] = KYSE-410, KYSE410, mean of three experiments
[28] = KYSE-450, KYSE450, 1st experiment
[29] = KYSE-450, KYSE450, 2nd experiment
[30] = KYSE-450, KYSE450, 3rd experiment
[31] = KYSE-450, KYSE450, mean of three experiments
[32] = KYSE-510, KYSE510, 1st experiment
[33] = KYSE-510, KYSE510, 2nd experiment
[34] = KYSE-510, KYSE510, 3rd experiment
[35] = KYSE-510, KYSE510, mean of three experiments
[36] = KYSE-70, KYSE70, 1st experiment
[37] = KYSE-70, KYSE70, 2nd experiment
[38] = KYSE-70, KYSE70, 3rd experiment
[39] = KYSE-70, KYSE70, mean of three experiments

Compound: CN1CCN(C(=O)c2ccc(NC(=O)Nc3ccc(-c4nc(N5CCOCC5)c5cc(CN6CCN(S(C)(=O)=O)CC6)cn5n4)cc3)cc2)CC1 [Compound I-22, 1-(4-(4-methylpiperazine-carbonyl)phenyl)-3-(4-(6-((4-(methylsulfonyl)piperazin-1-yl)methy 1)-4-morpholinopyrrolo[2,1-f][1,2,4]triazin-2-yl)phenyl)urea]
IC50 (PI3Kα): 9.59 nM
IC50 [1]: 540 nM

Compound: Cc1nc(NC(=O)N2CCC[C@H]2C(N)=O)sc1-c1ccnc(C(C)(C)C(F)(F)F)c1 [BYL719, reference compound]
GI50 (COLO680N; 1st experiment): 6120 nM
GI50 (COLO680N; 2nd experiment): 6050 nM
GI50 (COLO680N; 3rd experiment): 6100 nM
GI50 (COLO680N; mean of three experiments): 6090 nM
GI50 (Detroit 562; [3]): 1970 nM
GI50 (Detroit 562; [4]): 2300 nM
GI50 (Detroit 562; [5]): 2380 nM
GI50 (Detroit 562; [6]): 2220 nM
GI50 (KYSE140; [7]): 2450 nM
GI50 (KYSE140; [8]): 3610 nM
GI50 (KYSE140; [9]): 2740 nM
GI50 (KYSE140; [10]): 2930 nM
GI50 (KYSE150; [11]): 1640 nM
GI50 (KYSE150; [12]): 2110 nM
GI50 (KYSE150; [13]): 1670 nM
GI50 (KYSE150; [14]): 1810 nM
GI50 (KYSE180; [15]): 354 nM
GI50 (KYSE180; [16]): 740 nM
GI50 (KYSE180; [17]): 553 nM
GI50 (KYSE180; [18]): 549 nM
GI50 (KYSE2; KYSE2, 1st experiment): 1440 nM
GI50 (KYSE2; KYSE2, 2nd experiment): 911 nM
GI50 (KYSE2; KYSE2, 3rd experiment): 1870 nM
GI50 (KYSE2; [19]): 1410 nM
GI50 (KYSE30; [20]): 10000 nM
GI50 (KYSE30; [21]): 6830 nM
GI50 (KYSE30; [22]): 10000 nM
GI50 (KYSE30; [23]): 8940 nM
GI50 (KYSE410; [24]): 1890 nM
GI50 (KYSE410; [25]): 816 nM
GI50 (KYSE410; [26]): 874 nM
GI50 (KYSE410; [27]): 1190 nM
GI50 (KYSE450; [28]): 8590 nM
GI50 (KYSE450; [29]): 10000 nM
GI50 (KYSE450; [30]): 8800 nM
GI50 (KYSE450; [31]): 9130 nM
GI50 (KYSE510; [32]): 1530 nM
GI50 (KYSE510; [33]): 835 nM
GI50 (KYSE510; [34]): 1030 nM
GI50 (KYSE510; [35]): 1130 nM
GI50 (KYSE70; [36]): 452 nM
GI50 (KYSE70; [37]): 450 nM
GI50 (KYSE70; [38]): 478 nM
GI50 (KYSE70; [39]): 460 nM
growth of KYSE 410 xenograft (in words) ([2]; 50 mg/kg p.o. every day for 3 weeks): significantly slowed down
Relative tumor proliferation rate T/C ([2]; d0): 100.00%
Relative tumor proliferation rate T/C ([2]; d3): 56.95%
Relative tumor proliferation rate T/C ([2]; d7): 31.23%
Relative tumor proliferation rate T/C ([2]; d10): 24.77%
Relative tumor proliferation rate T/C ([2]; d14): 22.12%
Relative tumor proliferation rate T/C ([2]; d17): 19.32%
Relative tumor proliferation rate T/C ([2]; d21): 15.37%

Compound: CS(=O)(=O)N1CCN(Cc2cc3c(N4CCOCC4)nc(-c4cnc(N)cc4C(F)(F)F)nn3c2)CC1 [Compound I-27, 5-(6-((4-(methylsulfonyl)piperazin-1-yl)methyl)-4-morpholinopyrrolo [2,1-f][1,2,4]triazin-2-yl)-4-(trifluoromethyl)pyridin-2-amine]
IC50 (PI3Kα): 8.37 nM
IC50 [1]: 730 nM
GI50 (COLO680N; 1st experiment): 959 nM
GI50 (COLO680N; 2nd experiment): 915 nM
GI50 (COLO680N; 3rd experiment): 917 nM
GI50 (COLO680N; mean of three experiments): 930 nM
GI50 (Detroit 562; [3]): 580 nM
GI50 (Detroit 562; [4]): 527 nM
GI50 (Detroit 562; [5]): 607 nM
GI50 (Detroit 562; [6]): 571 nM
GI50 (KYSE140; [7]): 898 nM
GI50 (KYSE140; [8]): 638 nM
GI50 (KYSE140; [9]): 792 nM
GI50 (KYSE140; [10]): 776 nM
GI50 (KYSE150; [11]): 202 nM
GI50 (KYSE150; [12]): 276 nM
GI50 (KYSE150; [13]): 150 nM
GI50 (KYSE150; [14]): 209 nM
GI50 (KYSE180; [15]): 100 nM
GI50 (KYSE180; [16]): 169 nM
GI50 (KYSE180; [17]): 77 nM
GI50 (KYSE180; [18]): 115 nM
GI50 (KYSE2; KYSE2, 1st experiment): 255 nM
GI50 (KYSE2; KYSE2, 2nd experiment): 165 nM
GI50 (KYSE2; KYSE2, 3rd experiment): 310 nM
GI50 (KYSE2; [19]): 243 nM
GI50 (KYSE30; [20]): 2350 nM
GI50 (KYSE30; [21]): 1100 nM
GI50 (KYSE30; [22]): 1070 nM
GI50 (KYSE30; [23]): 1510 nM
GI50 (KYSE410; [24]): 468 nM
GI50 (KYSE410; [25]): 959 nM
GI50 (KYSE410; [26]): 229 nM
GI50 (KYSE410; [27]): 552 nM
GI50 (KYSE450; [28]): 1230 nM
GI50 (KYSE450; [29]): 1000 nM
GI50 (KYSE450; [30]): 932 nM
GI50 (KYSE450; [31]): 1050 nM
GI50 (KYSE510; [32]): 247 nM
GI50 (KYSE510; [33]): 390 nM
GI50 (KYSE510; [34]): 204 nM
GI50 (KYSE510; [35]): 280 nM
GI50 (KYSE70; [36]): 109 nM
GI50 (KYSE70; [37]): 59 nM
GI50 (KYSE70; [38]): 112 nM
GI50 (KYSE70; [39]): 93 nM

More lines, main results first:

IC50 (PI3Kα): 5.67 nM
IC50 [1]: 470 nM
Compound: COC(=O)Nc1cc(C(F)(F)F)c(-c2nc(N3CCOC[C@@H]3C)c3cc(CN4CCN(S(C)(=O)=O)CC4)cn3n2)cn1 [Compound I-35, (S)-methyl (5-(4-(3-methylmorpholino)-6-((4-(methylsulfonyl)piperazin-1-yl)methyl)pyrrolo[2,1-f][1,2,4]triazin-2-yl)-4-(trifluoromethyl)pyridin-2-yl)carbamate]

IC50 (PI3Kα): 9.3 nM
IC50 [1]: 74 nM
Compound: CS(=O)(=O)N1CCN(Cc2cc3c(N4CCOCC4)nc(-c4cnc(NC(=O)Nc5ccc(F)cc5)cc4C(F)(F)F)nn3c2)CC1 [Compound I-28, 1-(4-fluorophenyl)-3-(5-(6-((4-(methylsulfonyl)piperazin-1-yl)methyl)-4-morpholinopyrrolo[2,1-f][1,2,4]triazin-2-yl)-4-(trifluoromethyl)pyridin-2-yl)urea]
inhibitory activity on Rh30 cell proliferation (in words) ([1]; 72 h): tens of nanomolar

IC50 (PI3Kα): 7.15 nM
Compound: CCOC(=O)Nc1cc(C(F)(F)F)c(-c2nc(N3CCOCC3)c3cc(CN4CCN(S(C)(=O)=O)CC4)cn3n2)cn1 [Compound I-32, Ethyl (5-(6-((4-(methylsulfonyl)piperazin-1-yl)methyl)-4-morpholinopyrrolo[2,1-f-][1,2,4]triazin-2-yl)-4-(trifluoromethyl)pyridin-2-yl)carbamate]
